Common to all, as to format: functional
Data set [1] concerns the target T1, Voltage-gated L-type calcium channel (Rattus norvegicus, UniProt P22002+Q02485+P27732). Description: Percent increase in current at -20 mV on L-type [Ca2+] channels in rat RIN-m5F at 3 insulinoma cells (n = 5).
Data set [2] concerns the target T1, Voltage-gated L-type calcium channel. The experiment in a line: Percent block of total Ba2+ current on L-type [Ca2+] channels in rat RIN-m5F at 3 insulinoma cells (n = 12).
The target is the same in data set [3]. Description: Percent increase in current at -20 mV on L-type [Ca2+] channels in rat RIN-m5F at 3 insulinoma cells (n = 8).

With `CO/C(O)=C1\C(C)=NC(C)=C([N+](=O)[O-])C1c1ccc2nonc2c1` (single isomer, unassigned; (+)), the Increase in data set [1] was 224%.

Regarding `CO/C(O)=C1\C(C)=NC(C)=C([N+](=O)[O-])C1c1cccc2nonc12` (single isomer, unassigned; (+)), in data set [2], the Increase came to 164%.

With `CO/C(O)=C1\C(C)=NC(C)=C([N+](=O)[O-])C1c1ccc2nonc2c1` (racemic), the Increase in data set [3] was 247%.

Values taken from ChEMBL document CHEMBL1132708, “Synthesis and voltage-clamp studies of methyl 1,4-dihydro-2, 6-dimethyl-5-nitro-4-(benzofurazanyl)pyridine-3-carboxylate racemates and enantiomers and of their benzofuroxanyl analogues” (J Med Chem, 1999).
